Experimental findings from patent US20240124444A1 (Celgene Corporation, priority 2020, published 2024) are described below.

The EC50 is the midpoint of the concentration-response curve. Read a high EC50 as lower potency in that assay.

This test concerns C. parvum strain UGA1. As to the kind of experiment: C. parvum growth inhibition assay (Nluc luminescence in HCT-8 cells). The settings on record: Cryptosporidium parvum; for inhibition at 1 µM / inhibition at 10 µM: HCT-8; for inhibition at 1 µM: read-out: % inh @ 1 uM C. parvum; for inhibition at 10 µM: read-out: % inh @ 10 uM C. parvum; for EC50: HCT-8, 48 h, C. parvum growth inhibition in HCT-8 cells, 48 hours, 6 concentrations 10-0.04 μM. It counts as cell-based, Cryptosporidium parvum.

The mark [1] stands for this setting: single point inhibition at 1 uM.
The mark [2] stands for this setting: single point inhibition at 10 uM.
[3] abbreviates: single point inhibition @ 10 uM.

Where two headings read alike, the source gives them in different places.

As to `Cn1cc(C(=O)Nc2cc3[nH]c(C4CCOCC4)cc3cn2)cn1` [Example 259, 1-methyl-N-(2-(tetrahydro-2H-pyran-4-yl)-1H-pyrrolo[3,2-c]pyridin-6-yl)-1H-pyrazole-4-carboxamide], under setting [1], the inhibition at 1 µM lay in the range of 0 to 33%. For the same compound, the inhibition at 10 µM under setting [2] lay in the range of 0 to 33%. For the compound `Cc1cc(-c2cc3cnc(NC(=O)c4cc(C(F)(F)F)n(C)n4)cc3[nH]2)ccn1` [Example 294, 1-methyl-N-(2-(2-methylpyridin-4-yl)-1H-pyrrolo[3,2-c]pyridin-6-yl)-5-(trifluoromethyl)-1H-pyrazole-3-carboxamide], the inhibition at 1 µM under setting [1] was 0 to 33%. Moreover, the inhibition at 10 µM under setting [2] was 0 to 33%. Regarding `Cc1nn(C)cc1C(=O)Nc1cc2[nH]c(-c3ccnc(OCC(F)F)n3)cc2cn1` [Example 317, N-(2-(2-(2,2-difluoroethoxy)pyrimidin-4-yl)-1H-pyrrolo[3,2-c]pyridin-6-yl)-1,3-dimethyl-1H-pyrazole-4-carboxamide], under setting [1], the inhibition at 1 µM was in the range of 0 to 33%. Under setting [2], the inhibition at 10 µM was in the range of 0 to 33%. Compound `Cc1cc(-c2[nH]c3cc(NC4CCOC4)ncc3c2C)ccn1` (stereo in doubt) [Example 368, (R)-3-methyl-2-(2-methylpyridin-4-yl)-N-(tetrahydrofuran-3-yl)-1H-pyrrolo[3,2-c]pyridin-6-amine] returned an EC50 above 1 µM. Take `O=C(Nc1cc2[nH]c(C3CC(F)(F)C3)cc2cn1)C1CC1` [Example 53, N-(2-(3,3-difluorocyclobutyl)-1H-pyrrolo[3,2-c]pyridin-6-yl)cyclopropanecarboxamide]: the EC50 was above 1 µM. As to `Cc1cc(-c2cc3cnc(NC(=O)c4cnn(C5CCCC5)c4)cc3[nH]2)ccn1` [Example 84, 1-cyclopentyl-N-(2-(2-methylpyridin-4-yl)-1H-pyrrolo[3,2-c]pyridin-6-yl)-1H-pyrazole-4-carboxamide], the EC50 was above 1 µM. In addition, the inhibition at 1 µM (single point inhibition @ 1 uM) lay within 67 to 100%. Also, the inhibition at 10 µM under setting [3] is 0 to 33%.

In turn, `CCn1c(-c2ccnc(OC)n2)cc2cnc(NC(=O)C3CC3)cc21` [Example 344, N-(1-ethyl-2-(2-methoxypyrimidin-4-yl)-1H-pyrrolo[3,2-c]pyridin-6-yl)cyclopropanecarboxamide] had an EC50 of 0.5 to 1 µM. Still for that read-out and setting: the value for `Cn1cc(-c2cc3cnc(NC4CCOCC4)cc3[nH]2)cn1` [Example 354, 2-(1-methyl-1H-pyrazol-4-yl)-N-(tetrahydro-2H-pyran-4-yl)-1H-pyrrolo[3,2-c]pyridin-6-amine] was above 1 µM; that for `CCn1c(-c2cc(C)ncn2)cc2cnc(NC(=O)C3CC3)cc21` [Example 122, N-(1-ethyl-2-(6-methylpyrimidin-4-yl)-1H-pyrrolo[3,2-c]pyridin-6-yl)cyclopropanecarboxamide] was above 1 µM.

Take `C[C@H]1C[C@@H]1C(=O)Nc1cc2[nH]c(-c3ccnc(C(F)(F)F)n3)cc2cn1` (stereo in doubt) [Example 262, (1S,2S)-2-methyl-N-(2-(2-(trifluoromethyl)pyrimidin-4-yl)-1H-pyrrolo[3,2-c]pyridin-6-yl)cyclopropanecarboxamide]: the inhibition at 1 µM under setting [1] fell in the range of 0 to 33%. Besides, the inhibition at 10 µM under setting [2] fell in the range of 0 to 33%. `CN(CC(F)(F)F)c1cc(-c2cc3cnc(NC4CCOCC4)cc3[nH]2)ncn1` [Example 394, 2-(6-(methyl(2,2,2-trifluoroethyl)amino)pyrimidin-4-yl)-N-(tetrahydro-2H-pyran-4-yl)-1H-pyrrolo[3,2-c]pyridin-6-amine]: the EC50 is above 1 µM. On the same count and under the same terms, the value for `Cc1cc(-c2cc3cnc(NC(=O)CN(C)C)cc3n2C)ncn1` [Example 127, 2-(dimethylamino)-N-(1-methyl-2-(6-methylpyrimidin-4-yl)-1H-pyrrolo[3,2-c]pyridin-6-yl)acetamide] was above 1 µM. Turning to `c1ccc(-c2cc3cnc(NC4CCOCC4)cc3[nH]2)nc1` [Example 349, 2-(pyridin-2-yl)-N-(tetrahydro-2H-pyran-4-yl)-1H-pyrrolo[3,2-c]pyridin-6-amine], the EC50 was above 1 µM. With `Cn1cc(C(=O)Nc2cc3[nH]c(-c4ccnc(C#N)c4)cc3cn2)cn1` [Example 239, N-(2-(2-cyanopyridin-4-yl)-1H-pyrrolo[3,2-c]pyridin-6-yl)-1-methyl-1H-pyrazole-4-carboxamide], under setting [1], the inhibition at 1 µM was 0 to 33%. Further, the inhibition at 10 µM under setting [2] lay within 33 to 66%. `Cc1cc(-c2cc3cnc(NC4CCOCC4)cc3[nH]2)nc(C)n1` [Example 393, 2-(2,6-dimethylpyrimidin-4-yl)-N-(tetrahydro-2H-pyran-4-yl)-1H-pyrrolo[3,2-c]pyridin-6-amine] showed an EC50 above 1 µM. For `Cc1cc(-c2cc3cnc(NC(=O)C(C)(C)C)cc3[nH]2)ccn1` [Example 301, N-(2-(2-methylpyridin-4-yl)-1H-pyrrolo[3,2-c]pyridin-6-yl)pivalamide], under setting [1], the inhibition at 1 µM fell in the range of 0 to 33%. Moreover, the inhibition at 10 µM under setting [2] was 0 to 33%.

For `FC(F)(F)CNc1cc(-c2cc3cnc(NC4CCOCC4)cc3[nH]2)ncn1` [Example 360, N -(tetrahydro-2H-pyran-4-yl)-2-(6-(2,2,2-trifluoroethylamino)pyrimidin-4-yl)-1H-pyrrolo[3,2-c]pyridin-6-amine], the EC50 was below 0.5 µM. Same read-out and setting: the value for `CCOc1nccc(-c2cc3cnc(NC4CCOCC4)cc3[nH]2)n1` [Example 377, 2-(2-ethoxypyrimidin-4-yl)-N-(tetrahydro-2H-pyran-4-yl)-1H-pyrrolo[3,2-c]pyridin-6-amine] was above 1 µM. In the case of `CCOc1nccc(-c2cc3cnc(NC(=O)c4cnn(C)c4)cc3[nH]2)n1` [Example 293, N-(2-(2-ethoxypyrimidin-4-yl)-1H-pyrrolo[3,2-c]pyridin-6-yl)-1-methyl-1H-pyrazole-4-carboxamide], the inhibition at 1 µM under setting [1] was 0 to 33%. Further, the inhibition at 10 µM under setting [2] fell in the range of 0 to 33%. Regarding `Cn1cc(C(=O)Nc2cc3c(cn2)cc(-c2ccnc(NCCC(F)(F)F)n2)n3C)cn1` [Example 133, 1-methyl-N-(1-methyl-2-(2-(3,3,3-trifluoropropylamino)pyrimidin-4-yl)-1H-pyrrolo[3,2-c]pyridin-6-yl)-1H-pyrazole-4-carboxamide], the inhibition at 1 µM (single point inhibition @ 1 uM) lay in the range of 0 to 33%. In addition, under setting [3], the inhibition at 10 µM is 67 to 100%. The compound `CCc1cc(-c2cc3cnc(NC4CCOCC4)cc3n2C)ncn1` [Example 389, 2-(6-ethylpyrimidin-4-yl)-1-methyl-N-(tetrahydro-2H-pyran-4-yl)-1H-pyrrolo[3,2-c]pyridin-6-amine] registered a 50% effective concentration (EC50) above 1 µM.

`Cc1cc(-c2[nH]c3cc(NC4CCOCC4)ncc3c2C(F)(F)F)ccn1` [Example 375, 2-(2-methylpyridin-4-yl)-N-(tetrahydro-2H-pyran-4-yl)-3-(trifluoromethyl)-1H-pyrrolo[3,2-c]pyridin-6-amine] returned an EC50 above 1 µM. The compound `Cc1cc(-c2cc3cnc(NC(=O)C4CC4)cc3n2CCN(C)C)ncn1` [Example 124, N-(1-(2-(dimethylamino)ethyl)-2-(6-methylpyrimidin-4-yl)-1H-pyrrolo[3,2-c]pyridin-6-yl)cyclopropanecarboxamide] registered a concentration giving a half-maximal response (EC50) above 1 µM. Turning to `COc1nccc(-c2cc3cnc(NC(=O)C4C5CCCCC54)cc3n2C)n1` (centres unmarked) [Example 211, N-(2-(2-methoxypyrimidin-4-yl)-1-methyl-1H-pyrrolo[3,2-c]pyridin-6-yl)bicyclo[4.1.0]heptane-7-carboxamide], under setting [1], the inhibition at 1 µM is 0 to 33%. Moreover, the inhibition at 10 µM under setting [2] is 67 to 100%. As to `Cc1cc(-c2cc3cnc(NC(=O)c4cnn(C)c4)cc3[nH]2)ccn1` [Example 224, 1-methyl-N-(2-(2-methylpyridin-4-yl)-1H-pyrrolo[3,2-c]pyridin-6-yl)-1H-pyrazole-4-carboxamide], the inhibition at 1 µM under setting [1] lay in the range of 0 to 33%. In addition, the inhibition at 10 µM under setting [2] was 33 to 66%.

Compound `CC(C)C(=O)Nc1cc2[nH]c(-c3ccncc3)cc2cn1` [Example 78, N-(2-(pyridin-4-yl)-1H-pyrrolo[3,2-c]pyridin-6-yl)isobutyramide] showed an EC50 above 1 µM. For the same compound, under “single point inhibition @ 1 uM”, the inhibition at 1 µM fell in the range of 33 to 66%. The inhibition at 10 µM under setting [3] is 67 to 100%.

`Cn1c(-c2cc(C(F)(F)F)ncn2)cc2cnc(NC3CCOCC3)cc21` [Example 392, 1-methyl-N-(tetrahydro-2H-pyran-4-yl)-2-(6-(trifluoromethyl)pyrimidin-4-yl)-1H-pyrrolo[3,2-c]pyridin-6-amine] came in with an EC50 above 1 µM.

Consider `Cn1cc(C(=O)Nc2cc3[nH]c(-c4cnco4)cc3cn2)cn1` [Example 64, 1-methyl-N-(2-(oxazol-5-yl)-1H-pyrrolo[3,2-c]pyridin-6-yl)-1H-pyrazole-4-carboxamide], for which the EC50 is above 1 µM. For the same compound, the inhibition at 1 µM (single point inhibition @ 1 uM) lay in the range of 0 to 33%. Also, the inhibition at 10 µM under setting [3] fell in the range of 33 to 66%. On to `Cc1cc(-c2cc3cnc(NC(=O)C45CC(C4)C5)cc3[nH]2)ccn1` [Example 298, N-(2-(2-methylpyridin-4-yl)-1H-pyrrolo[3,2-c]pyridin-6-yl)bicyclo[1.1.1]pentane-1-carboxamide], for which the inhibition at 1 µM under setting [1] was in the range of 0 to 33%. Besides, under setting [2], the inhibition at 10 µM was in the range of 0 to 33%.

`CN(CC(F)(F)F)c1nccc(-c2cc3cnc(NC4CCOCC4)cc3n2C)n1` [Example 30, 1-Methyl-2-(2-(methyl(2,2,2-trifluoroethyl)amino)pyrimidin-4-yl)-N-(tetrahydro-2h-pyran-4-yl)-1H-pyrrolo[3,2-c]pyridin-6-amine]: the EC50 is above 1 µM. For the setting “single point inhibition @ 1 uM”, the inhibition at 1 µM lay in the range of 0 to 33%. `CCOc1nccc(-c2cc3cnc(NC(=O)[C@H]4C[C@H](O)C4)cc3[nH]2)n1` [Example 253, (1r,3r)-N-(2-(2-ethoxypyrimidin-4-yl)-1H-pyrrolo[3,2-c]pyridin-6-yl)-3-hydroxycyclobutanecarboxamide]: the inhibition at 1 µM under setting [1] lay within 0 to 33%. Also, the inhibition at 10 µM under setting [2] was 0 to 33%.
